This is an account of results in patent publication US7816351B2, “5,6-dimethylthieno[2,3-di] pyrimidine derivatives, the preparation method thereof and the pharmaceutical composition comprising the same for anti-virus” (Equispharm Co., Ltd, priority 2005, dated 2010).

The assay has as its system hepatitis C virus replicon NK-R2AN in Huh-7 cells. Briefly: microbe, parasite or virus in culture. The format is cell-based. The settings on record: Huh-7 cells containing replicon NK-R2AN, 48 hours, renilla luciferase activity relative to protein amount, read-out: HCV replicon inhibitory activity (EC50). (In antiviral work, replicon cells carry a viral genome segment that copies itself.)
Consider `Cc1sc2nc(N3CCN(C(=O)c4ccccn4)CC3)nc(Nc3ccc(N4CCOCC4)cc3)c2c1C` [Example 1, 4-[5,6-dimethyl-4-(4-morpholin-4-yl-phenylamino)-thieno[2,3-d]pyrimidin-2-yl]-piperazin-1-yl-pyridin-2-yl-methanone], for which the EC50 was found to be 680 nM. The value for `Cc1sc2nc(N3CCN(C(=O)c4cccnc4)CC3)nc(Nc3ccc(N4CCOCC4)cc3)c2c1C` [Example 2, 4-[5,6-dimethyl-4-(4-morpholin-4-yl-phenylamino)-thieno[2,3-d]pyrimidin-2-yl]-piperazin-1-yl-pyridin-3-yl-methanone] was 450 nM.

Turning to `Cc1sc2nc(N3CCN(C(=O)c4ccncc4)CC3)nc(Nc3ccc(N4CCOCC4)cc3)c2c1C` [Example 3, 4-[5,6-dimethyl-4-(4-morpholin-4-yl-phenylamino)-thieno[2,3-d]pyrimidin-2-yl]-piperazin-1-yl-pyridin-4-yl-methanone], the EC50 was determined as 480 nM. The same measure for `Cc1sc2nc(N3CCN(C(=O)c4ccccn4)CC3)nc(Nc3ccc(N4CCOCC4)nc3)c2c1C` [Example 4, 4-[5,6-dimethyl-4-(6-morpholinopyridin-3-ylamino)-thieno[2,3-d]pyrimidin-2-yl]-piperazin-1-yl-pyridin-2-yl-methanone]: 710 nM; for `Cc1sc2nc(N3CCN(C(=O)c4cccnc4)CC3)nc(Nc3ccc(N4CCOCC4)nc3)c2c1C` [Example 5, 4-[5,6-dimethyl-4-(6-morpholinopyridin-3-ylamino)-thieno[2,3-d]pyrimidin-2-yl]-piperazin-1-yl-pyridin-3-yl-methanone]: 510 nM.

Usually EC50 stands for the concentration that produces a half-maximal response.
